Data taken from patent publication US11957759B1, “Rapidly accelerated fibrosarcoma (RAF) degrading compounds and associated methods of use” (Arvinas Operations, Inc., priority 2022, dated 2024).

Legend:
B-RAF V600E = target: T1, B-RAF V600E (Homo sapiens, UniProt P15056, V600E); assay: Target protein degradation, assay C: T-Rex 293 cells, HA-BRAF_V600E, 384 well format; type: cell-based; details: T-Rex 293 HA-BRAF_V600E cells, 24 hours, Examples 83-269; for DC50: Assay C; for Dmax: T-REx-293, Assay C
T1 construct: expressed in transfected cells; host or cells: T-Rex 293 cells (Invitrogen #R71007)
Protocol: C. T-Rex 293 Cells (384 Well Format)
(§1) T-Rex 293 cells were purchased from Invitrogen (#R71007), and stably transfected with a pcDNA4/TO_HA-BRAF_V600E construct, using 400 ug Zeocin for selection. V600E cells are plated in DMEM media (Gibco #11965118) containing 10% FBS (Gibco #16000044), 1% penicillin-streptomycin (ThermoFisher #15140122), 1:250 zeocin (Invitrogen #R-25005), and 1 ng/mL doxycycline (Selleckchem #4163) at a density of 7,500 cells/well in 45 μl on PDL coated, black clear bottom 384 well plates (Corning #354663) and incubated at 37° C.+5% CO2 for 24 hours. The following day, PROTAC compounds in a 1:3 11 point dilution are diluted into DMEM media using an Agilent Bravo. 5 ul of PROTACs suspended in DMEM media are added to the cells, with a final assay concentration ranging from 300 nM to 5 pM in 0.5% DMSO. Plates are incubated at 37° C.+5% CO2 for 24 hours. At the end of treatment, media is aspirated, and cells are fixed in 50 uL 4% PFA (EMS #15710) in PBS++(PBS, 1 mM CaCl, 1 mM MgCl) at RT for 15 minutes. Cells are washed 2× with 60 uL PBS++ and permeabilized in 50 uL 1% Triton X-100 (Sigma #93443) in PBS++ for 5 minutes at RT. Cells are washed in PBS++ prior to blocking with 50 uL Licor blocking buffer (Licor #927-60001) for 1 hour at RT. HA-tagged BRAF was stained using 50 uL HA antibody (CST #3724) at 1:1000 in Licor blocking buffer for two hours at RT. Primary is aspirated before adding 50 ul of secondary antibody solution containing 1:1000 Hoechst (ThermoFisher #62249), 1:1000 HCS CellMask Deep Red Stain (ThermoFisher #H32721), and 1:5000 goat anti-rabbit IgG Alexa-Fluor 488 (ThermoFisher #A32731) in PBS++ for 1 hr at RT. Plates are washed 4× with 60 uL PBS++, then sealed with Adhesive Black Light Absorbing Film (VWR #89087-692) and imaged on the ThermoFisher CX7 PRO high content instrument. BRAF intensity is quantified in HCS Studio software (ThermoFisher), using a custom script, exported, analyzed using KNIME, and curve curation is performed in an ELN (Scilligence). Cell toxicity is measured via comparing number of nuclei in PROTAC treated wells to DMSO controls.
(§2) The concentration of an exemplary compound that leads to half maximal degradation (DC50) as well as the maximum degradation observed (Dmax, conventionally expressed as a percentage of control) is shown below in Table 2.

B-RAF G466V = target: T2, B-RAF G466V (Homo sapiens, UniProt P15056, G466V); assay: Target protein degradation, assay D: T-Rex 293 cells, HA-BRAF_G466V, 384 well format; type: cell-based; details: T-Rex 293 HA-BRAF_G466V cells, 24 hours, Examples 83-269; for DC50: Assay D; for Dmax: T-REx-293, Assay D
T2 construct: expressed in transfected cells; host or cells: T-Rex 293 cells (Invitrogen #R71007)
Protocol: D. T-Rex 293 Cells (384 Well Format)
as §1, with “pcDNA4/TO_HA-BRAF_G466V” for “pcDNA4/TO_HA-BRAF_V600E”, “G466V” for “V600E”
as §2

T2 sequence (P15056 whole entry G466V): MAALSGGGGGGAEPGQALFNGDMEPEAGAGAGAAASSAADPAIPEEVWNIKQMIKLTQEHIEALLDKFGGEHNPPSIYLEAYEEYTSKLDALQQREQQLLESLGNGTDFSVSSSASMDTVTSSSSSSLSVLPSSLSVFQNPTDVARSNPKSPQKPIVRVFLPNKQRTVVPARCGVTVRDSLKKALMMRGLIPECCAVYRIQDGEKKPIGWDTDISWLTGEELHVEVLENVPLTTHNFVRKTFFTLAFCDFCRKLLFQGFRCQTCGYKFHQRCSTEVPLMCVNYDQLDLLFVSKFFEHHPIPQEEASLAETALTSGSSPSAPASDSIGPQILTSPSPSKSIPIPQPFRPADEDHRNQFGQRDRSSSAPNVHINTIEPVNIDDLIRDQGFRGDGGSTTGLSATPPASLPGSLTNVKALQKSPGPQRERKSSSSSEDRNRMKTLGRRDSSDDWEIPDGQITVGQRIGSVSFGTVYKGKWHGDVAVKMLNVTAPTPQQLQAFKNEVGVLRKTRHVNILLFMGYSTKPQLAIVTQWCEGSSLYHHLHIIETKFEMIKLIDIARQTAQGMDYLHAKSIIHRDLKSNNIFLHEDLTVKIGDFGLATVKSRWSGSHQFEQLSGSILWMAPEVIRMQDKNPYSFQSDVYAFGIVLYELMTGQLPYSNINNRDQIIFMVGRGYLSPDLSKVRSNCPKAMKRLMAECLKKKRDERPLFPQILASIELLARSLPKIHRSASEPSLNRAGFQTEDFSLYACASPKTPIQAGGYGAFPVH
T1 sequence (P15056 whole entry V600E): as the sequence (P15056 whole entry G466V) above, with V466G, V600E counted along it

| DC50 (B-RAF V600E) [nM] | DC50 (B-RAF G466V) [nM] | Dmax (B-RAF V600E) [%] | Dmax (B-RAF G466V) [%] | SMILES |
| --- | --- | --- | --- | --- |
| 50 to 500 | 1 to 10 |  |  | N#Cc1c(NS(=O)(=O)N2CC[C@@H](F)C2)ccc(F)c1Oc1ccc2ncn(-c3ccc(N4CCC(CN5CC6(CCC(c7ccc8c(c7)CN(C7CCC(=O)NC7=O)C8=O)CC6)C5)C4)cc3)c(=O)c2c1 (single isomer, unassigned) [Example 261, (3R)-N-(2-cyano-3-{[3-(4-{3-[(7-{2-[(3R*)-2,6-dioxopiperidin-3-yl]-1-oxo-2,3-dihydro-1H-isoindol-5-yl}-2-azaspiro[3.5]nonan-2-yl)methyl]pyrrolidin-1-yl}phenyl)-4-oxo-3,4-dihydroquinazolin-6-yl]oxy}-4-fluorophenyl)-3-fluoropyrrolidine-1-sulfonamide] |
| 50 to 500 | ≤ 1 | 35 to 70 | ≤ 35 | N#Cc1c(NS(=O)(=O)N2CC[C@@H](F)C2)ccc(F)c1Oc1ccc2ncn(-c3ccc(N4CCN(CC5CCN(c6ccc7c(c6)CN(C6CCC(=O)NC6=O)C7=O)CC5)CC4)cn3)c(=O)c2c1 (stereo partly drawn) [Example 83, (3R)-N-{2-cyano-3-[(3-{5-[4-({1-[2-(2,6-dioxopiperidin-3-yl)-1-oxo-2,3-dihydro-1H-isoindol-5-yl]piperidin-4-yl}methyl)piperazin-1-yl]pyridin-2-yl}-4-oxo-3,4-dihydroquinazolin-6-yl)oxy]-4-fluorophenyl}-3-fluoropyrrolidine-1-sulfonamide] |
| 5 to 50 | ≤ 1 | 35 to 70 | 35 to 70 | C[C@H]1CN(CC2CCN(c3ccc4c(c3)CN([C@H]3CCC(=O)NC3=O)C4=O)CC2)CCN1c1ccc(-n2cnc3ccc(Oc4c(F)ccc(NS(=O)(=O)N5CC[C@@H](F)C5)c4C#N)cc3c2=O)cc1 [Example 84, (3R)-N-{2-cyano-3-[(3-(4-[(2S)-4-[(1-{2-[(3S)-2,6-dioxopiperidin-3-yl]-1-oxo-2,3-dihydro-1H-isoindol-5-yl}piperidin-4-yl)methyl]-2-methylpiperazin-1-yl]phenyl}-4-oxo-3,4-dihydroquinazolin-6-yl)oxy]-4-fluorophenyl}-3-fluoropyrrolidine-1-sulfonamide] |
| 5 to 50 | 1 to 10 | 35 to 70 | 35 to 70 | N#Cc1c(NS(=O)(=O)N2CC[C@@H](F)C2)ccc(F)c1Oc1ccc2ncn(-c3ccc(N4CCC(CN5CC6(C5)CN(c5ccc7c(c5)CN(C5CCC(=O)NC5=O)C7=O)C6)CC4)cc3)c(=O)c2c1 (stereo partly drawn) [Example 85, (3R)-N-{2-cyano-3-[(3-{4-[4-({6-[2-(2,6-dioxopiperidin-3-yl)-1-oxo-2,3-dihydro-1H-isoindol-5-yl]-2,6-diazaspiro[3.3]heptan-2-yl}methyl)piperidin-1-yl]phenyl}-4-oxo-3,4-dihydroquinazolin-6-yl)oxy]-4-fluorophenyl}-3-fluoropyrrolidine-1-sulfonamide] |
| 5 to 50 | ≤ 1 | 35 to 70 | ≤ 35 | N#Cc1c(NS(=O)(=O)N2CC[C@@H](F)C2)ccc(F)c1Oc1ccc2ncn(-c3ccc(N4CCN(CC5CCN(c6ccc7c(c6)CN(C6CCC(=O)NC6=O)C7=O)CC5)CC4)c(F)c3)c(=O)c2c1 (stereo partly drawn) [Example 86, (3R)-N-{2-cyano-3-[(3-(4-[4-({1-[2-(2,6-dioxopiperidin-3-yl)-1-oxo-2,3-dihydro-1H-isoindol-5-yl]piperidin-4-yl}methyl)piperazin-1-yl]-3-fluorophenyl}-4-oxo-3,4-dihydroquinazolin-6-yl)oxy]-4-fluorophenyl}-3-fluoropyrrolidine-1-sulfonamide] |
| > 500 | > 30 |  |  | N#Cc1c(NS(=O)(=O)N2CC[C@@H](F)C2)ccc(F)c1Oc1ccc2ncn(-c3ccc(N4CCN(CC5CCN(c6ccc7c(c6)CN(C6CCC(=O)NC6=O)C7=O)CC5)CC4)cc3F)c(=O)c2c1 (stereo partly drawn) [Example 87, (3R)-N-{2-cyano-3-[(3-{4-[4-({1-[2-(2,6-dioxopiperidin-3-yl)-1-oxo-2,3-dihydro-1H-isoindol-5-yl]piperidin-4-yl}methyl)piperazin-1-yl]-2-fluorophenyl}-4-oxo-3,4-dihydroquinazolin-6-yl)oxy]-4-fluorophenyl}-3-fluoropyrrolidine-1-sulfonamide] |
| 5 to 50 | ≤ 1 | ≤ 35 | 35 to 70 | COc1cc(-n2cnc3ccc(Oc4c(F)ccc(NS(=O)(=O)N5CC[C@@H](F)C5)c4C#N)cc3c2=O)ccc1N1CCN(CC2CCN(c3ccc4c(c3)CN(C3CCC(=O)NC3=O)C4=O)CC2)CC1 (stereo partly drawn) [Example 88, (3R)-N-{2-cyano-3-[(3-{4-[4-({1-[2-(2,6-dioxopiperidin-3-yl)-1-oxo-2,3-dihydro-1H-isoindol-5-yl]piperidin-4-yl}methyl)piperazin-1-yl]-3-methoxyphenyl}-4-oxo-3,4-dihydroquinazolin-6-yl)oxy]-4-fluorophenyl}-3-fluoropyrrolidine-1-sulfonamide] |
| 5 to 50 | 1 to 10 | 35 to 70 | ≤ 35 | N#Cc1c(NS(=O)(=O)N2CC[C@@H](F)C2)ccc(F)c1Oc1ccc2ncn(-c3cnc(N4CCN(CC5CCN(c6ccc7c(c6)CN(C6CCC(=O)NC6=O)C7=O)CC5)CC4)cn3)c(=O)c2c1 (stereo partly drawn) [Example 89, (3R)-N-{2-cyano-3-[(3-(5-[4-({1-[2-(2,6-dioxopiperidin-3-yl)-1-oxo-2,3-dihydro-1H-isoindol-5-yl]piperidin-4-yl}methyl)piperazin-1-yl]pyrazin-2-yl}-4-oxo-3,4-dihydroquinazolin-6-yl)oxy]-4-fluorophenyl}-3-fluoropyrrolidine-1-sulfonamide] |
| 50 to 500 | 1 to 10 | 35 to 70 | 35 to 70 | N#Cc1c(NS(=O)(=O)N2CC[C@@H](F)C2)ccc(F)c1Oc1ccc2ncn(-c3cccc(N4CCN(CC5CCN(c6ccc7c(c6)CN(C6CCC(=O)NC6=O)C7=O)CC5)CC4)c3)c(=O)c2c1 (stereo partly drawn) [Example 90, (3R)-N-{2-cyano-3-[(3-{3-[4-({1-[2-(2,6-dioxopiperidin-3-yl)-1-oxo-2,3-dihydro-1H-isoindol-5-yl]piperidin-4-yl}methyl)piperazin-1-yl]phenyl}-4-oxo-3,4-dihydroquinazolin-6-yl)oxy]-4-fluorophenyl}-3-fluoropyrrolidine-1-sulfonamide] |
